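All cell lines were grown in 96-well plates and treated with compound for 48 hours. At the GI50, growth is halved. At the TGI there is no net growth.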
Legend:
Experiment in all cases: growth of human tumour cells (NCI), 48 h
SK-MEL-28 melanoma = tested on: SK-MEL-28 melanoma
U251 CNS = tested on: U251 CNS
T-47D breast = tested on: T-47D breast
OVCAR-3 ovarian = tested on: OVCAR-3 ovarian
MALME-3M melanoma = tested on: MALME-3M melanoma
RXF 393 renal = tested on: RXF 393 renal
CCRF-CEM leukemia = tested on: CCRF-CEM leukemia
UACC-257 melanoma = tested on: UACC-257 melanoma
OVCAR-4 ovarian = tested on: OVCAR-4 ovarian
HS 578T breast = tested on: HS 578T breast

SMILES | GI50 (SK-MEL-28 melanoma) [nM] | TGI (SK-MEL-28 melanoma) [µM] | GI50 (U251 CNS) [µM] | TGI (U251 CNS) [µM] | GI50 (T-47D breast) [nM] | TGI (T-47D breast) [µM] | GI50 (OVCAR-3 ovarian) [µM] | TGI (OVCAR-3 ovarian) [µM] | GI50 (MALME-3M melanoma) [nM] | TGI (MALME-3M melanoma) [µM] | GI50 (RXF 393 renal) [nM] | TGI (RXF 393 renal) [µM] | GI50 (CCRF-CEM leukemia) [nM] | TGI (CCRF-CEM leukemia) [µM] | GI50 (UACC-257 melanoma) [nM] | TGI (UACC-257 melanoma) [µM] | GI50 (OVCAR-4 ovarian) [nM] | TGI (OVCAR-4 ovarian) [µM] | GI50 (HS 578T breast) [µM] | TGI (HS 578T breast) [µM]
COc1ccc2c(c1)C(=O)c1c-2c(Nc2ccccc2OC)nc2ccccc12 | > 100000 | > 100 | 83.2 | > 100 | > 100000 | > 100 | > 100 | > 100 | > 100000 | > 100 | > 100000 | > 100 | > 100000 | > 100 | > 100000 | > 100 | 50500 | > 100 | > 100 | > 100
N#CC1(c2ccc(NC(=O)c3cccnc3NCc3ccncc3)cc2)CCCC1 | 17300 | > 89.8 | 12 | 25.8 | 4150 | 49.7 | 14.8 | 70 | 12100 | 50.1 | 2810 | 12.3 | 12900 | > 95 | 17700 | > 68.9 | 13200 | 98.5 | 9.86 | 50.2
CC(Br)C(=O)NC(CO)C(=O)O (stereo not given) | – | > 100 | – | > 100 | – | > 100 | – | > 100 | – | > 100 | – | > 100 | – | > 100 | – | > 100 | – | > 100 | – | > 100
CC1=C(C(=O)Nc2ccccc2)C(c2ccc(N(C)C)cc2)C(C(=O)Nc2ccccc2)=C(C)N1 | – | 36.6 | – | > 72.4 | – | > 93.6 | – | > 100 | – | 39.6 | – | > 100 | – | 57.7 | – | > 100 | – | > 100 | – | > 100
CC(=O)O[C@H]1C(=O)[C@@]2(C)C([C@H](OC(=O)c3ccccc3)[C@]3(O)C[C@H](OC(=O)[C@H](O)[C@@H](NC(=O)c4ccccc4)c4ccccc4)C(C)=C1C3(C)C)[C@]1(OC(C)=O)CO[C@@H]1C[C@@H]2O (stereo not given in full) | 13.9 | > 50 | 0.0111 | > 50 | 9.73 | > 50 | 0.0056 | 0.0589 | – | – | 5.16 | 0.0382 | 14.1 | > 50 | > 50000 | > 50 | 198 | > 50 | – | > 50
CC(C)(CO)CNC(=O)c1ccc2[nH]c(O)c(N=Nc3ccc(S(N)(=O)=O)cc3)c2c1 | > 25000 | > 25 | > 25 | > 25 | > 25000 | > 25 | > 25 | > 25 | > 25000 | > 25 | > 25000 | > 25 | > 25000 | > 25 | > 25000 | > 25 | > 25000 | > 25 | > 25 | > 25
CN[C@@H](C)C(=O)N[C@H]1CN(S(=O)(=O)c2cccc(S(=O)(=O)N3CC[C@H]4CC[C@@H](C(=O)NC(c5ccccc5)c5ccccc5)N4C(=O)[C@@H](NC(=O)[C@H](C)NC)C3)c2)CC[C@H]2CC[C@@H](C(=O)NC(c3ccccc3)c3ccccc3)N2C1=O | 15600 | 29.7 | 24.4 | 63.8 | 23600 | > 100 | 12.2 | 25.2 | < 10.4 | 0.0452 | 165 | 2.93 | 1850 | > 100 | 18000 | 50.2 | 18.7 | 0.128 | 18.9 | 47.8
COc1ccc2c(c1)c(-c1nc(-c3c[nH]c4ncccc34)cs1)cn2CCCN1CCOCC1 | 1950 | 3.83 | 2.25 | 5.09 | 2070 | 7.83 | 2.57 | 7.93 | 1390 | 3.14 | 2090 | 4.88 | 2760 | 8.09 | 2040 | 3.81 | 2140 | 8.27 | 2.08 | 6.92
COc1ccc2c(N)ncc(C#Cc3cc(C(=O)Nc4ccc(CN5CCN(C)CC5)c(C(F)(F)F)c4)cnc3C)c2c1 | 660 | 1.81 | 0.581 | 1.15 | 13500 | 25.4 | 1.31 | 5.29 | 322 | 1.16 | 502 | 1.11 | 841 | 4.13 | 1780 | 9.22 | 1130 | 10.9 | 0.847 | 4.2
CN(C)CCCC1(c2ccc(F)cc2)OCc2cc(-c3cccc4[nH]ccc34)ccc21 (stereo not given) | 1830 | 3.27 | 1.52 | 2.89 | 1750 | 3.78 | 1.79 | 3.35 | 1560 | 3.01 | 1460 | 2.88 | 1650 | 3.95 | 1700 | 3.18 | 1970 | 4.51 | 2.12 | 5.03
Cc1ccc(O)cc1Nc1ccnc2ccc(S(C)(=O)=O)cc12 | 1980 | > 25 | 5.22 | > 25 | 1590 | 24.3 | 4.82 | > 22.8 | 892 | 9.35 | 381 | 1.99 | > 25000 | > 25 | 957 | > 25 | > 25000 | > 25 | 0.42 | 4.25
C[C@]12CC[C@H]3[C@@H](CCC4=CC(=O)CC[C@@]43C)[C@@H]1CC[C@@H]2c1csc(N)n1 | 10000 | 26 | 3.83 | 19 | 2260 | 18.8 | 3.38 | 12.3 | – | – | 10800 | 24.2 | 4490 | 49 | 2750 | 13 | 2980 | 27.2 | 8.84 | 35.8

Source: PubChem BioAssay (NCI)
